# Where two headings read alike, the source gives them in different places.
# Key:
# 5HT2b (h) = 5HT2b (h) (Homo sapiens, UniProt P41595); test: 5HT2b (h) binding assay; details: Table 7B; unit inferred
# H1 (hr) = target: T1, H1 (hr) (Homo sapiens, UniProt P35367); test: H1 (hr) Novascreen binding assay; details: Table 7A; Ki in nM
# T1 construct: Novascreen, MDS, Cerep (assay providers)
# Experimental: Binding assays were performed using various sleep-inducing agents and derivatives selected from those listed in Table 1 in competitive binding assays with known standards for the H1 histamine receptor, and the M1, M2, and M3 muscarinic receptors, alpha 1 and alpha 2 receptors, D1 and D2 receptors, 5HT2a, 5HT2b, 5HT2c, 5HT2c, and 5HT7 receptors.
# The histamine H1 assays are described in Chang, et al., Heterogeneity of Histamine H1-Receptors: Species Variation in [^3H]Mepyramine Binding of Brain Membranes. Journal of Neurochemistry. 32: 1653-1663 (1979); Martinez-Mir, M. I., Pollard, H., Moreau, J., et al. Three Histamine Receptors (H1, H2, and H3) Visualized in the Brain of Human and Non-Human Primates. Brain Res. 526: 322-327 (1990); Haaksma, E. E. J., Leurs, R. and Timmerman, H. Histamine Receptors: Subclasses and Specific Ligands. Pharmac. Ther. 47: 73-104 (1990). The muscarinic assays are described in Buckley, N. J., Bonner, T. I., Buckley, C. M., and Brann, M. R. Antagonist Binding Properties of Five Cloned Muscarinic Receptors Expressed in CHO-K1 Cells. Mol. Pharmacol. 35: 469-476 (1989). The assays were performed according to the preceding articles, with the following modifications. Chemical reagents in the following were obtained from Sigma, St. Louis, Mo.
# D2 (h) = D2 (h) (Homo sapiens, UniProt P14416); test: Dopamine D2 binding assay; details: Table 7A; unit inferred
# adult, male Wistar rats = test: Sleep-wakefulness monitoring (SCORE-2000, EEG/EMG) in rats; type: in vivo, rat; details: minutes; for LONGEST UNINTERRUPTED SLEEP BOUT 10 mg/kg / NREM CUMULATION 10 mg/kg: oral bolus at CT-18, 10 mg/kg; for LONGEST UNINTERRUPTED SLEEP BOUT 30 mg/kg / NREM CUMULATION 30 mg/kg: oral bolus at CT-18, 30 mg/kg
# Experimental: Sleep-wakefulness, locomotor activity and body temperature are monitored in male Wistar rats treated with a test compound (i.e., olanzapine analog) initially at a concentration of 10 mg/kg. Higher and lower doses are assayed for select compounds (e.g., as high as 45 mg/kg, and as low as necessary to establish a no-effect dose). Treatments are administered at CT-18, the peak of the activity dominated period (6 hours after lights-off), and produced soporific (sleep-inducing) effects characterized by increased non-REM sleep time, increased sleep continuity, but without evidence of REM sleep inhibition or rebound insomnia.
# Sleep-wakefulness, locomotor activity and body temperature were monitored in vivo with various compounds of the invention. Adult, male Wistar rats (250 g at time of surgery, Charles River Laboratories, Wilmington Mass.) were anesthetized (2% isoflourane in medical grade oxygen) and surgically prepared with a cranial implant to permit chronic electro-encephalogram (EEG) and electromyogram (EMG) recording. Body temperature and locomotor activity were monitored via a miniature transmitter (Mini-Mitter, Bend, Oreg.) surgically placed in the abdomen. The cranial implant consisted of stainless steel screws (two frontal (+3.2 AP from bregma, ±2.0 ML) and two occipital (−6.9 AP, ±5.5 ML)) for EEG recording. Two Teflon®-coated stainless steel wires were positioned under the nuchal trapezoid muscles for EMG recording. All leads were soldered to a miniature connector prior to surgery, and gas sterilized in ethylene oxide. The implant assembly was affixed to the skull with dental acrylic. A minimum of three weeks was allowed for surgical recovery.
# Each rat was permanently housed in its own individual recording cage located within separate, ventilated compartments of custom-designed stainless steel cabinets. Each cage was enhanced with a filter-top riser and low-torque swivel-commutator. Food and water were available ad libitum. A 24-hr light-dark cycle (12 hours light, 12 hours dark) was maintained throughout the study. Animals were undisturbed for at least 48 hours before and after treatments.
# Sleep and wakefulness were determined using “SCORE-2000™” (Hypnion, Worcester, Mass.)—an internet-based sleep-wake and physiological monitoring system. The system monitored amplified EEG (bandpass 1-30 Hz), integrated EMG (bandpass 10-100 Hz), body temperature and non-specific locomotor activity (LMA) via telemetry, and drinking activity, continuously and simultaneously. Arousal states were classified on-line as non-REM (NREM) sleep, REM sleep, wake, or theta-dominated wake every 10 seconds. Total drinking and locomotor activity counts, and body temperature were quantitiated and recorded each minute, using EEG feature extraction and pattern-matching algorithms. […] The classification algorithm used individually-taught EEG-arousal-state templates, plus EMG criteria to differentiate REM sleep from theta-dominated wakefulness, plus behavior-dependent contextual rules (e.g., if the animal was drinking, it is awake). Drinking and locomotor activity intensity (LMA) were recorded every 10 seconds, while body temperature was recorded each minute. Locomotor activity was detected by a telemetry receiver (Mini-Mitter) beneath the cage. Telemetry measures (LMA and body temperature) were not part of the scoring algorithm; thus, sleep-scoring and telemetry data were independent measures.
# Compounds were administered at CT-18, the peak of the activity-dominated period, sufficient time was allowed to view the time course of the treatment effect before lights-on (6 hours post-treatment). Compounds were suspended in sterile 0.25% or 0.5% methylcellulose (1-2 ml/kg). Treatments were administered orally as a bolus.
# A parallel group study design was employed. […]
# 5HT2a (hctx) = target: T2, 5HT2a (hctx) (Homo sapiens, UniProt P28223); test: 5HT2a (hctx) binding assay; details: Table 7B; unit inferred
# T2 construct: (hctx); from tissue; host or cells: human cortex (my reading of 'hctx')
# [1] = target: T3, human recombinant M3 expressed in CHO cells (Homo sapiens, UniProt P20309); test: M3 muscarinic receptor binding assay; details: Table 7A, third line of column M1 M2 M3
# T3 construct: purchased PerkinElmer, Inc., Wellesley, Mass; host or cells: CHO cells
# 5HT2a (rat) = 5HT2a (rat) (Rattus norvegicus, UniProt P14842); test: 5HT2a (rat) binding assay; details: Table 7A; unit inferred
# [2] = target: T4, human recombinant M1 expressed in CHO cells (Homo sapiens, UniProt P11229); test: M1 muscarinic receptor binding assay; details: Table 7A, first line of column M1 M2 M3
# T4 construct: purchased PerkinElmer, Inc., Wellesley, Mass; host or cells: CHO cells
# T4 sequence (P11229 1-460): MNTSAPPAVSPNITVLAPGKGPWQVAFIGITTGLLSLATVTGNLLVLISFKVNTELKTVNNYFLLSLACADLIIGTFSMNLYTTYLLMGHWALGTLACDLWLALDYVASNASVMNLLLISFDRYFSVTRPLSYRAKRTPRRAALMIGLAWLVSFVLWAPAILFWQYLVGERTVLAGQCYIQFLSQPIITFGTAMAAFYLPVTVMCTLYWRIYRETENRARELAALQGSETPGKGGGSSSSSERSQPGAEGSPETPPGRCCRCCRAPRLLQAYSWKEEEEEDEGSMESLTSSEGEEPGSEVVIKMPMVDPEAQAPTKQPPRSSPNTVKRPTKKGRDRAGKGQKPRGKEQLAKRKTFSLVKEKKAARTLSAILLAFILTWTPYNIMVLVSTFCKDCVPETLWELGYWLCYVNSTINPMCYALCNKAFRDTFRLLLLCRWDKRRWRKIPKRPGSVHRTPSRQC
# [3] = target: T5, human recombinant M2 expressed in CHO cells (Homo sapiens, UniProt P08172); test: M2 muscarinic receptor binding assay; details: Table 7A, M1 M2 M3
# T5 construct: purchased PerkinElmer, Inc., Wellesley, Mass; host or cells: CHO cells
# T5 sequence (P08172 1-466): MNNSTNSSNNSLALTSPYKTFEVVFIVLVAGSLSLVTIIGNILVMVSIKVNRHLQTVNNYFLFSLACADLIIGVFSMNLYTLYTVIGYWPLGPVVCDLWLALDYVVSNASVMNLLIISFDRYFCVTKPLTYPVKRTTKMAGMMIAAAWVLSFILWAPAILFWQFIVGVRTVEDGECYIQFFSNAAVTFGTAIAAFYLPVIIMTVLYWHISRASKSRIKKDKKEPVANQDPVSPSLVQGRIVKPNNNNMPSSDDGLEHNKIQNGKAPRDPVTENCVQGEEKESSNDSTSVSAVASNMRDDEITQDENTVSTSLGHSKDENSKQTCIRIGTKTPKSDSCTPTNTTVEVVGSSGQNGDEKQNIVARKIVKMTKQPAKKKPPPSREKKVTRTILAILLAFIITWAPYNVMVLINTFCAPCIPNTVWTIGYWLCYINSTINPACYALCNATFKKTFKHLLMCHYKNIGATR
# [4] = target: T6, histamine H1 receptor (bovine) (Bos taurus, UniProt P30546); test: Histamine H1 binding assay, bovine cerebellar membranes, [3H]pyrilamine; details: Table 7A; Ki in nM
# T6 construct: the receptors were obtained from bovine cerebellar membrane tissue; from tissue; host or cells: bovine cerebellar membranes
# D1 (h) = D1 (h) (Homo sapiens, UniProt P21728); test: Dopamine D1 (human recombinant) binding assay; details: Table 7A; unit inferred
# Experimental: Dopamine, D1 (human recombinant) binding assay was performed according to published procedures. See, e.g., Jarvie, et al. J. Recept Res., 13(1-4): 573-90 (1993); and Billard, et al. Life Sciences, 35(18): 1885-93 (1984), with modifications
# [5] = target: T4, human recombinant M1 expressed in CHO cells; details: reference compounds; read-out: Ki of reference compounds in the M1 binding assay; cited from earlier work
# T3 sequence (P20309 whole entry): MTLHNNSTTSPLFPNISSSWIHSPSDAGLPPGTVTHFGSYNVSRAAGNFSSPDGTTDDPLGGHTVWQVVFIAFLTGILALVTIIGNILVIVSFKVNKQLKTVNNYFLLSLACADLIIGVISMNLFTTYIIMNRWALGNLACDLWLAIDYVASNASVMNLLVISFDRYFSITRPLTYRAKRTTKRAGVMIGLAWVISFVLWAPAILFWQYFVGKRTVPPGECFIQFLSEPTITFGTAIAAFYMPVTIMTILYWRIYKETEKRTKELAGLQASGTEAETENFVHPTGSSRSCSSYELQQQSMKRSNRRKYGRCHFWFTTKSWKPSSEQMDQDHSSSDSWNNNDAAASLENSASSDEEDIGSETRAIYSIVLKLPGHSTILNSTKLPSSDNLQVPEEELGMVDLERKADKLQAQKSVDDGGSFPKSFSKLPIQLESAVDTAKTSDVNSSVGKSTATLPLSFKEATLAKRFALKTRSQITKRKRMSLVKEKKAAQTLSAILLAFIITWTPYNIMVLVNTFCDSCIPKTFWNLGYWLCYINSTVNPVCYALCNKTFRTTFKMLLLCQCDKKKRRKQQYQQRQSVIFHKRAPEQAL
# T2 sequence (P28223 whole entry): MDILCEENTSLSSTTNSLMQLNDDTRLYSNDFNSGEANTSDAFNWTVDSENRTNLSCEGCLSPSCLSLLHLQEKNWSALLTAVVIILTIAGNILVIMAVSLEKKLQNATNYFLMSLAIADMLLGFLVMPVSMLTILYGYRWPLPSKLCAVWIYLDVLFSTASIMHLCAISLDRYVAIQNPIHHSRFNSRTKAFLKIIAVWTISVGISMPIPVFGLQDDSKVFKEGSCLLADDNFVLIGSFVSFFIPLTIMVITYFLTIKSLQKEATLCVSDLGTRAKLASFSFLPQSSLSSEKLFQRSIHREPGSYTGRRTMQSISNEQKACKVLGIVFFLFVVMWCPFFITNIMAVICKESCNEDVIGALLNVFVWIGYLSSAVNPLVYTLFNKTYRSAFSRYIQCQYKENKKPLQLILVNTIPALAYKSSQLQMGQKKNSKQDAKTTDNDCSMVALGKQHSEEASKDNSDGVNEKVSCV
# Sequence of D2 (h) (P14416 whole entry): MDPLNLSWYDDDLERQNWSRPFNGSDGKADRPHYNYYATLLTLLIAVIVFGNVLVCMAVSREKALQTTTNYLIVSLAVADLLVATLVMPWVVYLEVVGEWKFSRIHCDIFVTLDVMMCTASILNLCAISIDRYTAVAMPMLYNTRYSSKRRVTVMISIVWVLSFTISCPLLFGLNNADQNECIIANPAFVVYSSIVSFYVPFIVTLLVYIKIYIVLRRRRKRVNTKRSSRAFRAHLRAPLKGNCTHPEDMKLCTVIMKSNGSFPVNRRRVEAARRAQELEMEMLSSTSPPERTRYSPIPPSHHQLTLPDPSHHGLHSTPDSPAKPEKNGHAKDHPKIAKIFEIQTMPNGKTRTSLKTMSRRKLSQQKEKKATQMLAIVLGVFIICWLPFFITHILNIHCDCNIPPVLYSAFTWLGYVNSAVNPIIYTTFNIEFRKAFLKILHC
# T6 sequence (P30546 whole entry): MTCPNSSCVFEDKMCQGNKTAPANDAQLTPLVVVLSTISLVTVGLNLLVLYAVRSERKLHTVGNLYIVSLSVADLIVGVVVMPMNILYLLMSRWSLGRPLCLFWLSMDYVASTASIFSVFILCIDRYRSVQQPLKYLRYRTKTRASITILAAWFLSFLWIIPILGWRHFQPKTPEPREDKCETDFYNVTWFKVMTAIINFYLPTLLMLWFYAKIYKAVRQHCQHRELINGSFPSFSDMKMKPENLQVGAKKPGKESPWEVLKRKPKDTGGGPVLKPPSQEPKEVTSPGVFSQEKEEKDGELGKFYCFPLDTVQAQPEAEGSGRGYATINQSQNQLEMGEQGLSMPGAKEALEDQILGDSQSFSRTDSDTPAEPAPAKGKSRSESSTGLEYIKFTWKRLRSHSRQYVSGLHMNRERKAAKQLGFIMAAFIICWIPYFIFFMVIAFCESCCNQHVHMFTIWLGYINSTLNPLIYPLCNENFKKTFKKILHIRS
# Sequence of D1 (h) (P21728 whole entry): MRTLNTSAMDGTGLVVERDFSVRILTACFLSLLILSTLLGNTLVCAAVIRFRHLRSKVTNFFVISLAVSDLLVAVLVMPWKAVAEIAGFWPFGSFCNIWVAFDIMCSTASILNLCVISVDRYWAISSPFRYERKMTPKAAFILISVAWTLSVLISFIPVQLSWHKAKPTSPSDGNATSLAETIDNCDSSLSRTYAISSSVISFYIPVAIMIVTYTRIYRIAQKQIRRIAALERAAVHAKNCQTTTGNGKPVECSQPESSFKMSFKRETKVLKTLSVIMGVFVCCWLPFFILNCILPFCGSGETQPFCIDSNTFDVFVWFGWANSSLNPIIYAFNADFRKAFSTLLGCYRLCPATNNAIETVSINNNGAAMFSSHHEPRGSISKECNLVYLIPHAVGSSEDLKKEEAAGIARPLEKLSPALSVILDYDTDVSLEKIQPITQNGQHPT
# T1 sequence (P35367 whole entry): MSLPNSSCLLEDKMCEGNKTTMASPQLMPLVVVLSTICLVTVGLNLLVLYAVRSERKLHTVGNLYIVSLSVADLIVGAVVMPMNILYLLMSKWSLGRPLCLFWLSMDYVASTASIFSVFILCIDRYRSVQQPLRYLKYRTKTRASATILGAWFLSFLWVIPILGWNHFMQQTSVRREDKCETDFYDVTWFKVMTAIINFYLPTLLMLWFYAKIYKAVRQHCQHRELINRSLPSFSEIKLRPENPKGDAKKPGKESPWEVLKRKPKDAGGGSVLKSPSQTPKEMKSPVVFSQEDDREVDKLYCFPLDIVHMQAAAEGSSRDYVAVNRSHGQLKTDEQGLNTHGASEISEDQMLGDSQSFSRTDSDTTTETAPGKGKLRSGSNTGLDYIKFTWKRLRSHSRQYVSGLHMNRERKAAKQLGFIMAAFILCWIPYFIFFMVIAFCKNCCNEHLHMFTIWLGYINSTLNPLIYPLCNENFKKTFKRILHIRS
# Sequence of 5HT2b (h) (P41595 whole entry): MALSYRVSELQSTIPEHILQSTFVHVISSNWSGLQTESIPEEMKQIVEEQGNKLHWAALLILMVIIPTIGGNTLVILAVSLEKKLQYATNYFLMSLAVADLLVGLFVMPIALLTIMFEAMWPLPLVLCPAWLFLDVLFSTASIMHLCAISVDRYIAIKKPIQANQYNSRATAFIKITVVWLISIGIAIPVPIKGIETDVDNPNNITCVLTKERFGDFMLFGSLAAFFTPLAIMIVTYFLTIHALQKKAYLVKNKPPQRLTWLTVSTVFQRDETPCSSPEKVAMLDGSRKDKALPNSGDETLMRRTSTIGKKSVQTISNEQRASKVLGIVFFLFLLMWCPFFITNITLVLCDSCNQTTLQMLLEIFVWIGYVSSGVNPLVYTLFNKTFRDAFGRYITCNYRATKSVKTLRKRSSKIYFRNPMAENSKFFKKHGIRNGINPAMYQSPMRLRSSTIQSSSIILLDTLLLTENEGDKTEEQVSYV
# Sequence of 5HT2a (rat) (P14842 whole entry): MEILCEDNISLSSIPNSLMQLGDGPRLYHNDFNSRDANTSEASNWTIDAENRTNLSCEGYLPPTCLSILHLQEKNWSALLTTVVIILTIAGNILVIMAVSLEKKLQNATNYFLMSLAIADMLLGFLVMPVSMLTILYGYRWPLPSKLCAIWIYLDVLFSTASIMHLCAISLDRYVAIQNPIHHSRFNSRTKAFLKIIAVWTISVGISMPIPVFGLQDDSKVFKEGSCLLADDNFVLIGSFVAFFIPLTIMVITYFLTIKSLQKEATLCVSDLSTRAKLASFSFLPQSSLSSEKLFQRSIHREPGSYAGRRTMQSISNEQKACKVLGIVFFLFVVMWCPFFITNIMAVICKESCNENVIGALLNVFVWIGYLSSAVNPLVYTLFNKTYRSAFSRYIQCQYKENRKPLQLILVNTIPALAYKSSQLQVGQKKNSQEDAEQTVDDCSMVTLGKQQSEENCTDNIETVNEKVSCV
SMILES,"LONGEST UNINTERRUPTED SLEEP BOUT 10 mg/kg (adult, male Wistar rats)","NREM CUMULATION 10 mg/kg (adult, male Wistar rats)","LONGEST UNINTERRUPTED SLEEP BOUT 30 mg/kg (adult, male Wistar rats)","NREM CUMULATION 30 mg/kg (adult, male Wistar rats)",other results
Cc1ccc2c(c1)Nc1sc(C)cc1C(N1CCN(CC(C)(C)C(=O)O)CC1)=N2 [Compound 95],15.8 ± 5.2 min,43 ± 5 min,,,Ki (5HT2b (h)): 240 nM; Ki (H1 (hr)): 200 nM; Ki (D2 (h)): 970 nM; Ki (5HT2a (hctx)): 28 nM
Cc1cc2c(s1)Nc1ccccc1N=C2N1CCN(CC(C)(C)C(=O)NS(C)(=O)=O)CC1 [Compound 89],5.7 ± 1.8 min,14 ± 7 min,13.6 ± 2.7 min,37 ± 6 min,Ki [1]: > 10000 nM; Ki (5HT2a (rat)): 29.5 nM; Ki (D2 (h)): 927 nM; Ki [2]: > 10000 nM; Ki [3]: > 10000 nM; Ki [4]: 139 nM; Ki (D1 (h)): 6500 nM; Ki (5HT2a (hctx)): 1000 nM
CC(C)(CN1CCN(C2=Nc3ccccc3Nc3sccc32)CC1)C(=O)O [Compound 1],-7.0 ± 2.4 min,6 ± 6 min,4.1 ± 2.1 min,12 ± 5 min,Ki [1]: > 10000 nM; Ki [2]: > 10000 nM; Ki [3]: > 10000 nM; Ki [4]: 2310 nM
Cc1cc2c(s1)Nc1cc(F)ccc1N=C2N1CCN(CC(C)(C)C(=O)O)CC1 [Compound 101],5.9 ± 2.4 min,51 ± 8 min,,,
COc1ccc2c(c1)Nc1sc(C)cc1C(N1CCN(CC(C)(C)C(=O)O)CC1)=N2 [Compound 98],-6.2 ± 2.7 min,12 ± 7 min,,,
Cc1ccc2c(c1)N=C(N1CCN(CC(C)(C)C(=O)O)CC1)c1cc(C)sc1N2 [Compound 52],5.9 ± 2.3 min,25 ± 5 min,,,
Cc1cc2c(s1)Nc1ccccc1N=C2N1CCN(CCCC(=O)O)CC1 [Compound 93],-3.0 ± 2.8 min,16 ± 6 min,2.0 ± 1.5 min,10 ± 5 min,
Cc1ccc2c(c1)Nc1sc(C)cc1C(N1CCN(CCC(=O)O)CC1)=N2 [Compound 97],-3.6 ± 2.6 min,7 ± 3 min,,,
C[N+]1(C)CCC(OC(=O)C(c2ccccc2)c2ccccc2)CC1 [4-DAMP methiodide],,,,,Ki [5]: 0.27 nM
